Test results reported in US4482553A, “Benzothienylglycyl cephalosporin derivatives” (priority 1983, dated 1984).
Converted amounts (≈) assume the structure as drawn. Like-named read-outs stand apart in the source and are kept apart here.

Experiments:
Assay type in all cases: cell-based
[1] = test system: Staph. epi; assay: Expanded Spectrum MIC (Table II), Staph. epi
From the text: (§1) The antibacterial activity of several compounds of the invention has been determined in standard in vitro agar dilution assays against a variety of gram positive and gram negative microorganisms. The following Tables present typical minimum inhibitory concentrations (MIC's) in μg/ml for several compounds of the invention when evaluated against the indicated microorganisms. MIC's for several known compounds are also presented for comparison.

[2] = test system: Strep. D; assay: standard in vitro agar dilution MIC (Table I), Strep. D
[3] = test system: H. influ.; assay: Expanded Spectrum MIC (Table II), H. influ.
From the text: as §1

[4] = test system: H. influ.; assay: standard in vitro agar dilution MIC (Table I), H. influ.
From the text: as §1

[5] = test system: Klebsiella; assay: standard in vitro agar dilution MIC (Table I), Klebsiella
[6] = test system: Staph. epi; assay: standard in vitro agar dilution MIC (Table I), Staph. epi
[7] = test system: Strep. A; assay: standard in vitro agar dilution MIC (Table I), Strep. A; details: Table I, agar dilution, strain C203; read-out: MIC
[8] = test system: Staph. aureus; assay: standard in vitro agar dilution MIC (Table I), Staph. aureus; details: Staphylococcus aureus
[9] = test system: Strep. PN; assay: standard in vitro agar dilution MIC (Table I), Strep. PN; details: strain PARK, read-out: MIC
[10] = test system: E. coli; assay: standard in vitro agar dilution MIC (Table I), E. coli; details: Escherichia coli
[11] = test system: Staph. aureus; assay: Expanded Spectrum MIC (Table II), Staph. aureus; details: Staphylococcus aureus
From the text: as §1

[12] = Klebsiella, Table I, agar dilution, strain KAE, read-out: MIC
[13] = Klebsiella, Table I, agar dilution, strain X26, read-out: MIC
[14] = Klebsiella, Table I, agar dilution, strain X68, read-out: MIC
[15] = Table I, agar dilution, strain 222, read-out: MIC
[16] = Table I, agar dilution, strain EPI1, read-out: MIC
[17] = Table I, agar dilution, strain X68

CC1=C(C(=O)O)N2C(=O)C(NC(=O)[C@H](N)c3cc4c(Cl)cccc4s3)C2SC1 (stereo partly drawn) [Ex. 7A, D-7-(4-chloro-2-benzothienylglycylamido)-3-methyl-3-cephem-4-carboxylic acid]
MIC ([1]; strain 219, read-out: MIC): 0.5 µg/mL (≈ 1.14 µM) | MIC ([1]; strain 269, read-out: MIC): 1 µg/mL (≈ 2.28 µM) | MIC ([1]; strain 270, read-out: MIC): 2 µg/mL (≈ 4.57 µM) | MIC ([1]; strain 285, read-out: MIC): 1 µg/mL (≈ 2.28 µM) | MIC ([1]; strain 286, read-out: MIC): 0.25 µg/mL (≈ 0.571 µM) | MIC ([1]; strain EPI1, read-out: MIC): 4 µg/mL (≈ 9.13 µM) | MIC ([2]; strain 2041, read-out: MIC): 32 µg/mL (≈ 73.1 µM) | MIC ([2]; strain X66, read-out: MIC): 32 µg/mL (≈ 73.1 µM) | MIC ([3]; strain 76, read-out: MIC): 16 µg/mL (≈ 36.5 µM) | MIC ([3]; strain 158, read-out: MIC): 8 µg/mL (≈ 18.3 µM) | MIC ([3]; strain 169, read-out: MIC): 8 µg/mL (≈ 18.3 µM) | MIC ([3]; strain 312, read-out: MIC): 16 µg/mL (≈ 36.5 µM) | MIC ([3]; strain 1683, read-out: MIC): 4 µg/mL (≈ 9.13 µM) | MIC ([3]; strain 1930, read-out: MIC): 16 µg/mL (≈ 36.5 µM) | MIC ([3]; strain 4842, read-out: MIC): 8 µg/mL (≈ 18.3 µM) | MIC ([3]; strain C.L., read-out: MIC): 32 µg/mL (≈ 73.1 µM) | MIC ([3]; strain HESS, read-out: MIC): 32 µg/mL (≈ 73.1 µM) | MIC ([3]; strain M366, read-out: MIC): 32 µg/mL (≈ 73.1 µM) | MIC ([3]; strain R465, read-out: MIC): 16 µg/mL (≈ 36.5 µM) | MIC ([3]; strain STEL, read-out: MIC): 32 µg/mL (≈ 73.1 µM) | MIC ([4]; strain 76, read-out: MIC): 4 µg/mL (≈ 9.13 µM) | MIC [5, 12]: > 128 µg/mL | MIC [5, 13]: 8 µg/mL (≈ 18.3 µM) | MIC [5, 14]: > 128 µg/mL | MIC [6, 15]: 1 µg/mL (≈ 2.28 µM) | MIC [6, 16]: 2 µg/mL (≈ 4.57 µM) | MIC [7]: 0.25 µg/mL (≈ 0.571 µM) | MIC ([8]; strain V41, read-out: MIC): 2 µg/mL (≈ 4.57 µM) | MIC ([8]; strain X1.1, read-out: MIC): 0.5 µg/mL (≈ 1.14 µM) | MIC ([8]; strain X400, read-out: MIC): 32 µg/mL (≈ 73.1 µM) | MIC [9]: 0.5 µg/mL (≈ 1.14 µM) | MIC ([10]; strain EC14): > 128 µg/mL | MIC ([10]; strain N10): > 128 µg/mL | MIC ([10]; strain TEM): > 128 µg/mL | MIC ([11]; strain 239, read-out: MIC): 0.5 µg/mL (≈ 1.14 µM) | MIC ([11]; strain S224, read-out: MIC): 0.5 µg/mL (≈ 1.14 µM) | MIC ([11]; strain S225, read-out: MIC): 0.5 µg/mL (≈ 1.14 µM) | MIC ([11]; strain S226, read-out: MIC): 0.5 µg/mL (≈ 1.14 µM) | MIC ([11]; strain S227, read-out: MIC): 0.5 µg/mL (≈ 1.14 µM) | MIC ([11]; strain S228, read-out: MIC): 0.5 µg/mL (≈ 1.14 µM) | MIC ([11]; strain S229, read-out: MIC): 0.5 µg/mL (≈ 1.14 µM) | MIC ([11]; strain S230, read-out: MIC): 0.5 µg/mL (≈ 1.14 µM) | MIC ([11]; strain S231, read-out: MIC): 0.25 µg/mL (≈ 0.571 µM) | MIC ([11]; strain S234, read-out: MIC): 0.5 µg/mL (≈ 1.14 µM) | MIC ([11]; strain S237, read-out: MIC): 0.5 µg/mL (≈ 1.14 µM) | MIC ([11]; strain S238, read-out: MIC): 0.5 µg/mL (≈ 1.14 µM)

CC1=C(C(=O)O)N2C(=O)C(NC(=O)[C@@H](N)c3cc4c(Cl)cccc4s3)C2SC1 (stereo partly drawn) [Ex. 7B, L-7-(4-chloro-2-benzothienylglycylamido)-3-methyl-3-cephem-4-carboxylic acid]
MIC ([2]; strain 2041, read-out: MIC): 128 µg/mL (≈ 292 µM) | MIC ([2]; strain X66, read-out: MIC): > 128 µg/mL | MIC ([4]; strain 76, read-out: MIC): 4 µg/mL (≈ 9.13 µM) | MIC ([4]; strain C.L., read-out: MIC): 64 µg/mL (≈ 146 µM) | MIC [5, 12]: > 128 µg/mL | MIC [5, 13]: 32 µg/mL (≈ 73.1 µM) | MIC [5, 14]: > 128 µg/mL | MIC [6, 15]: 4 µg/mL (≈ 9.13 µM) | MIC [6, 16]: 8 µg/mL (≈ 18.3 µM) | MIC [7]: 0.5 µg/mL (≈ 1.14 µM) | MIC ([8]; strain V41, read-out: MIC): 16 µg/mL (≈ 36.5 µM) | MIC ([8]; strain X1.1, read-out: MIC): 2 µg/mL (≈ 4.57 µM) | MIC ([8]; strain X400, read-out: MIC): 128 µg/mL (≈ 292 µM) | MIC [9]: 2 µg/mL (≈ 4.57 µM) | MIC ([10]; strain EC14): > 128 µg/mL | MIC ([10]; strain N10): > 128 µg/mL | MIC ([10]; strain TEM): > 128 µg/mL

COc1c([C@@H](N)C(=O)NC2C(=O)N3C(C(=O)O)=C(C)CSC23)sc2ccccc12 (stereo partly drawn) [Ex. 9A, D-7-(3-methoxy-2-benzothienylglycylamido)-3-methyl-3-cephem-4-carboxylic acid]
MIC ([1]; strain 219, read-out: MIC): 0.25 µg/mL (≈ 0.577 µM) | MIC ([1]; strain 269, read-out: MIC): 1 µg/mL (≈ 2.31 µM) | MIC ([1]; strain 270, read-out: MIC): 1 µg/mL (≈ 2.31 µM) | MIC ([1]; strain 285, read-out: MIC): 0.5 µg/mL (≈ 1.15 µM) | MIC ([1]; strain 286, read-out: MIC): 0.25 µg/mL (≈ 0.577 µM) | MIC ([1]; strain EPI1, read-out: MIC): 4 µg/mL (≈ 9.23 µM) | MIC ([2]; strain 2041): 128 µg/mL (≈ 295 µM) | MIC ([2]; strain X66): > 128 µg/mL | MIC ([4]; strain 76, read-out: MIC): 32 µg/mL (≈ 73.8 µM) | MIC ([4]; strain C.L., read-out: MIC): 64 µg/mL (≈ 148 µM) | MIC ([5]; Klebsiella): > 128 µg/mL | MIC [5, 13]: 32 µg/mL (≈ 73.8 µM) | MIC [5, 17]: > 128 µg/mL | MIC [6, 15]: 8 µg/mL (≈ 18.5 µM) | MIC [6, 16]: 32 µg/mL (≈ 73.8 µM) | MIC [7]: 1 µg/mL (≈ 2.31 µM) | MIC ([8]; strain S13E): 64 µg/mL (≈ 148 µM) | MIC ([8]; strain V41, read-out: MIC): 64 µg/mL (≈ 148 µM) | MIC ([8]; strain X1.1, read-out: MIC): 4 µg/mL (≈ 9.23 µM) | MIC ([8]; strain X400, read-out: MIC): > 128 µg/mL | MIC [9]: 4 µg/mL (≈ 9.23 µM) | MIC ([10]; strain EC14): 128 µg/mL (≈ 295 µM) | MIC ([10]; strain N10): > 128 µg/mL | MIC ([10]; strain TEM): > 128 µg/mL | MIC ([11]; strain 239, read-out: MIC): 0.5 µg/mL (≈ 1.15 µM) | MIC ([11]; strain S224, read-out: MIC): 0.25 µg/mL (≈ 0.577 µM) | MIC ([11]; strain S225, read-out: MIC): 0.25 µg/mL (≈ 0.577 µM) | MIC ([11]; strain S226, read-out: MIC): 0.5 µg/mL (≈ 1.15 µM) | MIC ([11]; strain S227, read-out: MIC): 0.25 µg/mL (≈ 0.577 µM) | MIC ([11]; strain S228, read-out: MIC): 0.25 µg/mL (≈ 0.577 µM) | MIC ([11]; strain S229, read-out: MIC): 0.5 µg/mL (≈ 1.15 µM) | MIC ([11]; strain S230, read-out: MIC): 0.25 µg/mL (≈ 0.577 µM) | MIC ([11]; strain S231, read-out: MIC): 0.25 µg/mL (≈ 0.577 µM) | MIC ([11]; strain S234, read-out: MIC): 0.5 µg/mL (≈ 1.15 µM) | MIC ([11]; strain S237, read-out: MIC): 0.5 µg/mL (≈ 1.15 µM) | MIC ([11]; strain S238, read-out: MIC): 1 µg/mL (≈ 2.31 µM)

COc1c([C@H](N)C(=O)NC2C(=O)N3C(C(=O)O)=C(C)CSC23)sc2ccccc12 (stereo partly drawn) [Ex. 9B, L-7-(3-methoxy-2-benzothienylglycylamido)-3-methyl-3-cephem-4-carboxylic acid]
MIC ([2]; strain 2041): > 128 µg/mL | MIC ([2]; strain X66): > 128 µg/mL | MIC ([4]; strain 76, read-out: MIC): 64 µg/mL (≈ 148 µM) | MIC ([4]; strain C.L.): > 128 µg/mL | MIC ([5]; Klebsiella): > 128 µg/mL | MIC ([5]; Table I, agar dilution, strain KAE): > 128 µg/mL | MIC [5, 17]: > 128 µg/mL | MIC [6]: 128 µg/mL (≈ 295 µM) | MIC [6, 15]: 32 µg/mL (≈ 73.8 µM) | MIC [7]: 4 µg/mL (≈ 9.23 µM) | MIC ([8]; strain S13E): > 128 µg/mL | MIC ([8]; strain V41, read-out: MIC): > 128 µg/mL | MIC ([8]; strain X1.1, read-out: MIC): 16 µg/mL (≈ 36.9 µM) | MIC ([8]; strain X400, read-out: MIC): > 128 µg/mL | MIC [9]: 32 µg/mL (≈ 73.8 µM) | MIC ([10]; strain EC14): > 128 µg/mL | MIC ([10]; strain N10): > 128 µg/mL | MIC ([10]; strain TEM): > 128 µg/mL
